Consider four compounds from patent publication US7759377B2, “Acylaminothiazole derivatives and use thereof as beta-amyloid inhibitors” (Sanofi-Aventis, priority 2004, dated 2010).

The structures appear in SMILES notation.

For orientation: EC50 means the midpoint of the concentration-response curve. Low readings indicate greater potency, high ones weaker potency.

The target of the assay is T1, gamma-secretase (Homo sapiens, UniProt P49768, M146L).
T1 construct: expressed in transfected cells; host or cells: CHO-K1, clone 30-12
Nature of the assay: β-amyloid cellular test: inhibition of production of β-A4 peptide, ELISA of cellular supernatants. Conditions: CHO-K1 line coexpressing CT100 of APP and PS1 M146L clone 30-12; 24-25 h incubation; secreted amyloid peptide by ELISA. The class given is cell-based. The source says:
For the β-amyloid cellular test, the CHO—K1 line coexpressing the CT100 of APP and PS1 M146L clone 30-12 is used. The line targets the inhibition of gamma-secretase. Presenilin is linked to gamma-secretase activity (Wolfe M S, Haass C., The Role of presenilins in gamma-secretase activity, J. Biol. Chem. 2001, 276(8): 5413-6) and its coexpression with the amyloid protein or its N-terminal fragment causes an increase in secretion of the peptide A1-42 (β-A4), thereby generating a pharmacological tool which allows inhibition by the compounds of formula (I) of the production of the β-A4 peptide to be evaluated. 96-well culture plates are inoculated with 1×10^5 cells per well in 150 μl of incubation medium. The presence of a minimum percentage (1.3% final) of serum allows cellular adhesion to the plastic after 2-3 hours of incubation at 37° C., in the presence of 5% CO2. The products (15 μl) are tested at 10 μM DMSO 1% final and are incubated for 24-25 h at 37° C. in the presence of 5% CO2 and 100% humidity. After this 24-25 h incubation, the cellular supernatants (100 μl) are transferred to ELISA plates, treated with the capture antibody 6E10 (6E10, epitope: aa1-17, INTERCHIM/SENETEK 320/10), to determine the amount of amyloid peptides secreted by the cells in the presence of compounds according to the invention. A series of synthetic control peptide, “peptide 1-40”, at 5 and 10 ng/ml is treated in parallel. The ELISA plates are incubated overnight at 4° C.
The quantity of bound peptide is detected indirectly in the presence of a competitor which corresponds to the truncated peptide, peptide 1-28 coupled to biotin, which is then detected with streptavidin coupled to alkaline phosphatase. The substrate, p-nitrophenyl phosphate (pNPP FAST p-Nitrophenyl Phosphate, Sigma N2770), gives a yellow, soluble reaction product which can be read at 405 nm. The reaction is stopped with 0.1 M EDTA solution. For this purpose, following binding of the amyloid peptide in the ELISA plate, 50 μl of biotinylated peptide 1-28 are added to 100 μl of cellular supernatant and incubated for 30 minutes at ambient temperature. The ELISA plates are then washed 3 times. After drying by inversion on absorbent paper, 100 μl of streptavidin-alkaline phosphatase (Interchim/Jackson ImmunoResearch Laboratories 016-050-084) are added per well and incubated for 1 hour at ambient temperature. The plates are washed again and then the alkaline phosphatase substrate (pNPP 1 mg/ml) is added in an amount of 100 μl per well. After 30 minutes of incubation at ambient temperature the reaction is stopped by adding 100 μl per well of 0.1 M EDTA and reading is carried out at 405 nm.

For `CCC[C@H](NC(=O)[C@@H](O)C(C)(C)C)C(=O)Nc1nc(-c2nc3ccccc3o2)c(C(C)C)s1` [Compound 34, 2-{2-(S)-[2-(S)-hydroxy(3,3-dimethyl)butyrylamino]pentanoyl}amino-5-(1-methylethyl)-4-(1,3-benzoxazol-2-yl)thiazole], a half-maximal response (EC50) required 42 nM.

The compound `CCC[C@H](NC(=O)[C@@H](O)C(C)(C)C)C(=O)Nc1ncc(-c2nnnn2Cc2ccccc2)s1` [Compound 51, 2-{2-(S)-[2-(S)-hydroxy(3,3-dimethyl)butyrylamino]pentanoyl}amino-5-(1-benzyl-1H-tetrazol-5-yl)thiazole] yielded an EC50 of 94 nM. This EC50 is about 2.2-fold higher than that of the compound before.

For the compound `CCC[C@H](NC(=O)[C@@H](O)C(C)(C)C)C(=O)Nc1nc(-c2nc(-c3ccccc3)no2)c(C(C)C)s1` [Compound 7], the EC50 amounted to 52 nM.

On to `CCCC(NC(=O)C(O)c1cc(F)cc(F)c1)C(=O)Nc1nc(C)c(-c2nc(C)no2)s1` (stereo not shown) [Compound 40], for which the EC50 worked out at 85 nM.
